Like-named read-outs stand apart in the source and are kept apart here.
Tests used:
HepG2 cells = assay: Triglyceride (TAG) measurement assay, one week steatosis model; type: cell-based, human; details: for activity at 10 µM: Homo sapiens
Procedure: (§1) HepG2 wild type cells were purchased from genome engineering company Synthego. Cells were maintained with Roswell Park Memorial Institute growth media, RPMI, 1640 (R2405, Sigma-Aldrich) and supplemented with 10% fetal bovine serum (FBS, F7524, Sigma-Aldrich), 1% penicillin-streptomycin (P/S, P4333, Sigma-Aldrich). Steatosis induction media was prepared as high glucose Dulbecco's Modified Eagle Media (DMEM, D0819, Sigma-Aldrich) with 10% FBS, 1% P/S media supplemented with 10 μg/ml insulin (I9278, Sigma-Aldrich), and 10 μM T0901317 (T2320, Sigma-Aldrich). HepG2 cells were seeded 6×10^4 cells per well for 96-well plate and 1×10^6 cells per well for 6-well plate. HepG2 cells were incubated with steatosis induce media (SM) for one week by 3 day+2 day+2 day with total three times media exchange.
HepG2 cells were seeded at 6×10^4 cells per well into 96 well plate and induced steatosis for one week with 10 μM of target drugs. After steatosis induction, cells were washed with 200 μl of phosphate buffered saline (PBS) and triglyceride contents was measured by Triglyceride Assay Kit—Quantification (ab65336, Abcam) following manufacturer's instruction. Optical density (O.D) values were detected with microplate reader at 570 nm (Hidex Sense Beta Plus).
(§2) HepG2 cells were seeded at 60,000 cells per well in 96 well plate. Using steatosis induce media, the cells were treated with 10 μM of target drugs for one week. The media was changed 3 times at day 0, day 3 and day 5. TAG assay was performed using MAK266-1KT SDS Triglyceride Quantification Colorimetric kit and cell viability analysis was performed using MTT assay.

[1] = MTT cell viability after one week steatosis (ranking of target molecules); type: cell-based, human; details: human, HepG2 cells (wild type); HepG2, 10 μM, one week steatosis induce media, MTT; Control 100.00
Procedure: as §1, §2

[2] = 168 h, HepG2, 10 μM, one week steatosis induce media, Control 100.00, read-out: TAG (%)
[3] = HepG2, 168 h, ratio between TAG content and cell viability, Control 100.0, read-out: TAG/cell viability

Structure (SMILES)	activity at 10 µM (HepG2 cells; [2])	activity at 10 µM (HepG2 cells; [3])	viability at 1 week, 10 µM [1]	ratio between TAG content and cell viability (HepG2 cells)	TAG/cell viability (HepG2 cells; ratio as printed in text with %)	TAG content/cell viability ratio lower than JNK-IN-5A (HepG2 cells)
N#Cc1c(NC(=O)c2cccc3ccccc23)sc2c1CCN(C(=O)c1cccc(F)c1)C2 [PKL-A192]	22.9%	38%	60.1%			
CN(C(=O)N1CCc2c(sc(NC(=O)c3cccc4ccccc34)c2C#N)C1)c1ccccc1 [PKL-A162]	12.3%	25.1%	49.2%	low ratio between TAG content and cell viability	25.1%	
COc1cccc(NC(=O)N2CCc3c(sc(NC(=O)c4cccc5ccccc45)c3C#N)C2)c1 [PKL-A151]	11.5%	18.7%	61.6%	low ratio between TAG content and cell viability		more than 3 times
C=CC(=O)N1CCc2c(sc(NC(=O)c3cccc4ccccc34)c2C#N)C1 [PKL-A190]	24.2%	31.8%	76.2%			
COc1ccc(C(=O)Nc2sc3ccccc3c2C#N)c2ccccc12 [PKL-A149]	30.8%	60.5%	50.9%			
N#Cc1c(NC(=O)c2cccc3ccccc23)sc2c1CCN(C(=O)Nc1ccccc1Br)C2 [PKL-A157]	12.8%	35.1%	36.5%			
N#Cc1c(NC(=O)c2cccc3ccccc23)sc2c1CCN(CCn1cnc3ccccc31)C2 [PKL-B153, N-(6-(2-(1H-benzo[d]imidazol-1-yl)ethyl)-3-cyano-4,5,6,7-tetrahydrothieno[2,3c]pyridin-2-yl)-1-naphthamide]	34.3%	46.4%	74%			
CC(C)CCN1CCc2c(sc(NC(=O)c3cccc4ccccc34)c2C#N)C1 [PKL-B133]	28.1%	40.6%	69.3%			
C=CCN1CCc2c(sc(NC(=O)c3cccc4ccccc34)c2C#N)C1 [PKL-B129]	35.5%	49.9%	71.2%			
N#Cc1c(NC(=O)c2cccc3ccccc23)sc2c1CCN(C(=O)N(c1ccccc1)c1ccccc1)C2 [PKL-A164]	17.3%	37.6%	46%			
N#Cc1c(NC(=O)c2cccc3ccccc23)sc2c1CCN(CC(=O)c1ccccc1)C2 [PKL-B130]	16.8%	26.2%	64.1%			
Cc1ccccc1NC(=O)N1CCc2c(sc(NC(=O)c3cccc4ccccc34)c2C#N)C1 [PKL-A153]	13.2%	31.2%	42.5%			
C#Cc1cccc(NC(=O)CN2CCc3c(sc(NC(=O)c4cccc5ccccc45)c3C#N)C2)c1 [PKL-B170]	55.6%	84.2%	66%			
CCN(C)C(=O)N1CCc2c(sc(NC(=O)c3cccc4ccccc34)c2C#N)C1 [PKL-A163]	12.7%	27.2%	46.6%			
N#Cc1ccc(C(=O)N2CCc3c(sc(NC(=O)c4cccc5ccccc45)c3C#N)C2)cc1 [PKL-A193]	23.4%	37.6%	62.3%			
N#Cc1c(NC(=O)c2cccc3ccccc23)sc2c1CCN(C(=O)Nc1ccccc1[N+](=O)[O-])C2 [PKL-A154]	13.9%	30.3%	46%			
N#Cc1c(NC(=O)c2cccc3ccccc23)sc2c1CCN(C(=O)Nc1cccc3ccccc13)C2 [PKL-A161]	13.2%	29.8%	44.1%			
N#Cc1c(NC(=O)c2cccc3ccccc23)sc2c1CCCCC2 [PKL-A56, N-(3-cyano-5,6,7,8-tetrahydro-4H-cyclohepta[b]thiophen-2-yl)-1-naphthamide]	35.6%	62.5%	57%			
CC(=O)N1CCc2c(sc(NC(=O)c3cccc4ccccc34)c2C#N)C1 [PKL-A114]	14.1%	28.6%	49.4%			
N#Cc1c(NC(=O)c2cccc3ccccc23)sc2c1CCN(CC(=O)NC1CCOCC1)C2 [PKL-B164]	36.8%	49.6%	74.1%			
Cc1ccc(F)c(NC(=O)N2CCc3c(sc(NC(=O)c4cccc5ccccc45)c3C#N)C2)c1 [PKL-A160]	14.9%	26.4%	56.4%			
CCOC(=O)CN1CCc2c(sc(NC(=O)c3cccc4ccccc34)c2C#N)C1 [PKL-A118]	62.1%	68.2%	91%			
N#Cc1c(NC(=O)c2cccc3ccccc23)sc2c1CCN(S(=O)(=O)c1cccc3ccccc13)C2 [PKL-A183]	48.6%	67.2%	72.3%			
N#Cc1c(NC(=O)c2cccc3ccccc23)sc2c1CCN(CC(=O)Nc1ccccc1)C2 [PKL-B173]	34.7%	49%	70.8%			
COc1ccc(S(=O)(=O)N2CCc3c(sc(NC(=O)c4cccc5ccccc45)c3C#N)C2)cc1OC [PKL-A179]	34.7%	52.2%	66.5%			
